Reference: PubChem BioAssay AID1259411 (Chemical Carcinogenesis Research Information System (CCRIS), 2018)
The source made the active and inactive calls. The rule behind the calls is not given here.

Tested on: rodent carcinogenicity bioassays, tumor incidence
Assay: CCRIS carcinogenicity studies
Description: The CCRIS database contains chemical records with carcinogenicity, mutagenicity, tumor promotion, and tumor inhibition test results. It was developed by the National Cancer Institute (NCI). Data are derived from studies cited in primary journals, current awareness tools, NCI reports, and other sources. Test results have been reviewed by experts in carcinogenesis and mutagenesis.
CCRIS provides historical information from the years 1985 - 2011. It is no longer updated.
This is an archive assay for CCRIS carcinogenicity studies.

[Cl][Cd][Cl]
carcinogen call (Species: HAMSTER, Strain/Sex: SYRIAN/FEMALE, Route: INHALATION, Dose: 0, 30 UG/M3 19 HR/D 5 D/WK FOR 65 WK FOR A TOTAL CADMIUM DOSE OF 0, 180 MG/M3 (STUDY DURATION: 76 WK), Dose: 0, 30 UG/M3 19 HR/D 5 D/WK FOR 65 WK FOR A TOTAL CADMIUM DOSE OF 0, 180 MG/M3 (STUDY DURATION: 76 WK)): inactive; negative | carcinogen call (Species: HAMSTER, Strain/Sex: SYRIAN/MALE, Route: INHALATION, Dose: 0, 30 UG/M3 19 HR/D 5 D/WK FOR 65 WK FOR A TOTAL CADMIUM DOSE OF 0, 180 MG/M3 (STUDY DURATION: 113 WK), Dose: 0, 30 UG/M3 19 HR/D 5 D/WK FOR 65 WK FOR A TOTAL CADMIUM DOSE OF 0, 180 MG/M3 (STUDY DURATION: 113 WK)): inactive; negative | carcinogen call (Species: MOUSE, Strain/Sex: BALB/MALE, Route: SUBCUTANEOUS, Dose: 0, 20 UMOL/KG 1/WK FOR 16 WK (STUDY DURATION: 104 WK), Tumor Site: Type of Lesion: HEMATOPOIETIC SYSTEM: TUMOR): active; positive | carcinogen call (Species: MOUSE, Strain/Sex: BALB/MALE, Route: SUBCUTANEOUS, Dose: 0, 20 UMOL/KG ONCE (STUDY DURATION: 104 WK)): inactive; negative | carcinogen call (Species: MOUSE, Strain/Sex: CD-1/MALE, Route: SUBCUTANEOUS, Dose: 0, 0.03 MMOL/KG BW (5.5 MG/KG BW), SINGLE DOSE, Tumor Site: Type of Lesion: TESTES: INTERSTITIAL CELL TUMOR): active; positive | carcinogen call (Species: MOUSE, Strain/Sex: CD-1/MALE, Route: SUBCUTANEOUS, Dose: 5.5 MG/KG ONCE, Tumor Site: Type of Lesion: TESTES: INTERSTITIAL CELL TUMOR): active; positive | carcinogen call (Species: MOUSE, Strain/Sex: DBA/MALE, Route: SUBCUTANEOUS, Dose: 0, 40 UMOL/KG 1/WK FOR 16 WK (STUDY DURATION: 104 WK), Tumor Site: Type of Lesion: HEMATOPOIETIC SYSTEM: LYMPHOMA): active; positive | carcinogen call (Species: MOUSE, Strain/Sex: DBA/MALE, Route: SUBCUTANEOUS, Dose: 0, 40 UMOL/KG ONCE (STUDY DURATION: 104 WK)): inactive; negative | carcinogen call (Species: MOUSE, Strain/Sex: NFS/MALE, Route: SUBCUTANEOUS, Dose: 0, 40 UMOL/KG 1/WK FOR 16 WK (STUDY DURATION: 104 WK), Tumor Site: Type of Lesion: INJECTION SITE: TUMOR, LIVER: HEPATOCELLULAR ADENOMA OR CARCINOMA): active; positive | carcinogen call (Species: MOUSE, Strain/Sex: NFS/MALE, Route: SUBCUTANEOUS, Dose: 0, 40 UMOL/KG ONCE (STUDY DURATION: 104 WK), Tumor Site: Type of Lesion: LUNG: ADENOMA OR CARCINOMA): active; positive | carcinogen call (Species: MOUSE, Strain/Sex: SWISS/MALE, Route: SUBCUTANEOUS, Dose: 0, 40 UMOL/KG 1/WK FOR 16 WK BEGINNING AT 8 WK OF AGE (STUDY DURATION: 104 WK)): inactive; negative | carcinogen call (Species: MOUSE, Strain/Sex: SWISS/MALE, Route: SUBCUTANEOUS, Dose: 0, 40 UMOL/KG ONCE AT 8 WK OF AGE (STUDY DURATION: 104 WK), Tumor Site: Type of Lesion: ADRENAL GLAND: ADENOMA): active; positive | carcinogen call (Species: RAT, Strain/Sex: CS/MALE, Route: INTRAPROSTATIC, Dose: 0, 0.04 ML OF 0.1 MOLAR SOLUTION (0.73 MG) ONCE (STUDY DURATION: 250 D), Tumor Site: Type of Lesion: PROSTATE: CARCINOMA): active; positive | carcinogen call (Species: RAT, Strain/Sex: F344/MALE, Route: SUBCUTANEOUS, Dose: 0, 3 UMOL/KG BW ONCE, THEN 30 UMOL/KG BW 1X/WK FOR 17 WK BEGINNING 1 WK POST INITIAL DOSE (STUDY DURATION: 18 WK), Tumor Site: Type of Lesion: INJECTION SITE SARCOMA): active; positive | carcinogen call (Species: RAT, Strain/Sex: F344/MALE, Route: SUBCUTANEOUS, Dose: 0, 10, 20, 30 UMOL/KG BW 1X/WK FOR 18 WK (STUDY DURATION: 18 WK), Dose: 0, 10, 20, 30 UMOL/KG BW 1X/WK FOR 18 WK (STUDY DURATION: 18 WK), Tumor Site: Type of Lesion: INJECTION SITE SARCOMA): active; positive | carcinogen call (Species: RAT, Strain/Sex: F344/MALE, Route: SUBCUTANEOUS, Dose: 0, 30 UMOL/KG IN DORSAL THORACIC MIDLINE AREA ONCE (STUDY DURATION: 90 WK), Tumor Site: Type of Lesion: INJECTION SITE: SARCOMA, FIBROSARCOMA): active; positive | carcinogen call (Species: RAT, Strain/Sex: WISTAR/FEMALE, Route: INHALATION, Dose: 0, 30 UG/M3 22 HR/D 7 D/WK FOR 18 MO (STUDY DURATION: 31 MO), Tumor Site: Type of Lesion: LUNG: ALVEOLAR/BRONCHIOLAR ADENOMA, ADENOCARCINOMA): active; positive | carcinogen call (Species: RAT, Strain/Sex: WISTAR/FEMALE, Route: INHALATION, Dose: 0, 30 UG/M3 22 HR/D 7 D/WK FOR 18 MO (STUDY DURATION: 31 MO), Tumor Site: Type of Lesion: LUNG: TUMOR): active; positive | carcinogen call (Species: RAT, Strain/Sex: WISTAR/FEMALE, Route: INHALATION, Dose: 0, 30 UG/M3 AEROSOL 22 HR/D 7 D/WK FOR 18 MO (STUDY DURATION: 31 MO), Tumor Site: Type of Lesion: LUNG: ALVEOLAR/BRONCHIOLAR ADENOMA, SQUAMOUS CELL CARCINOMA): active; positive | carcinogen call (Species: RAT, Strain/Sex: WISTAR/FEMALE, Route: INHALATION, Dose: 0, 90 UG/M3 22 HR/D 7 D/WK FOR 6 MO (STUDY DURATION: 29 MO), Tumor Site: Type of Lesion: LUNG: ADENOCARCINOMA, SQUAMOUS CELL CARCINOMA): active; positive | carcinogen call (Species: RAT, Strain/Sex: WISTAR/FEMALE, Route: INHALATION, Dose: 0, 90 UG/M3 22 HR/D 7 D/WK FOR 6 MO (STUDY DURATION: 29 MO), Tumor Site: Type of Lesion: LUNG: TUMOR): active; positive | carcinogen call (Species: RAT, Strain/Sex: WISTAR/FEMALE, Route: INHALATION, Dose: 0, 90 UG/M3 AEROSOL 22 HR/D 7 D/WK FOR 6 MO (STUDY DURATION: 29 MO), Tumor Site: Type of Lesion: LUNG: ADENOCARCINOMA, SQUAMOUS CELL CARCINOMA): active; positive | carcinogen call (Species: RAT, Strain/Sex: WISTAR/MALE, Route: INHALATION, Dose: 0, 12.5, 25, 50 UG/M3 AEROSOL 23 HR/D 7 D/WK FOR 18 MO (STUDY DURATION: 31 MO), Dose: 0, 12.5, 25, 50 UG/M3 AEROSOL 23 HR/D 7 D/WK FOR 18 MO (STUDY DURATION: 31 MO), Tumor Site: Type of Lesion: LUNG: ADENOMA, ADENOCARCINOMA, EPIDERMOID CARCINOMA): active; positive | carcinogen call (Species: RAT, Strain/Sex: WISTAR/MALE, Route: INHALATION, Dose: 0, 30 MG/M3 AEROSOL 22 HR/D 7 D/WK FOR 18 MO (STUDY DURATION: 30 MO), Tumor Site: Type of Lesion: LUNG: ALVEOLAR/BRONCHIOLAR ADENOMA, ADENOCARCINOMA): active; positive | carcinogen call (Species: RAT, Strain/Sex: WISTAR/MALE, Route: INHALATION, Dose: 0, 30 UG/M3 22 HR/D 7 D/WK FOR 18 MO (STUDY DURATION: 30 MO), Tumor Site: Type of Lesion: LUNG: ALVEOLAR/BRONCHIOLAR ADENOMA, ADENOCARCINOMA): active; positive | carcinogen call (Species: RAT, Strain/Sex: WISTAR/MALE, Route: INHALATION, Dose: 0, 30 UG/M3 22 HR/D 7 D/WK FOR 18 MO (STUDY DURATION: 30 MO), Tumor Site: Type of Lesion: LUNG: TUMOR): active; positive | carcinogen call (Species: RAT, Strain/Sex: WISTAR/MALE, Route: INHALATION, Dose: 0, 90 UG/M3 22 HR/D 7 D/WK FOR 6 MO (STUDY DURATION: 30 MO), Tumor Site: Type of Lesion: LUNG: ALVEOLAR/BRONCHIOLAR ADENOMA, ADENOCARCINOMA, SQUAMOUS CELL CARCINOMA): active; positive | carcinogen call (Species: RAT, Strain/Sex: WISTAR/MALE, Route: INHALATION, Dose: 0, 90 UG/M3 22 HR/D 7 D/WK FOR 6 MO (STUDY DURATION: 30 MO), Tumor Site: Type of Lesion: LUNG: TUMOR): active; positive | carcinogen call (Species: RAT, Strain/Sex: WISTAR/MALE, Route: INHALATION, Dose: 0, 90 UG/M3 AEROSOL 22 HR/D 7 D/WK FOR 6 MO (STUDY DURATION: 30 MO), Tumor Site: Type of Lesion: LUNG: ALVEOLAR/BRONCHIOLAR, ADENOCARCINOMA, SQUAMOUS CELL CARCINOMA): active; positive | carcinogen call (Species: RAT, Strain/Sex: WISTAR/MALE, Route: SUBCUTANEOUS, Dose: 0, 0.03 MMOL/KG BW (5.5 MG/KG BW), SINGLE DOSE, Tumor Site: Type of Lesion: TESTES: INTERSTITIAL CELL TUMOR): active; positive | carcinogen call (Species: RAT, Strain/Sex: WISTAR/MALE, Route: SUBCUTANEOUS, Dose: 0, 3 UMOL/KG BW ONCE, THEN 30 UMOL/KG BW 1X/WK FOR 17 WK BEGINNING 1 WK POST INITIAL DOSE (STUDY DURATION: 18 WK), Tumor Site: Type of Lesion: INJECTION SITE SARCOMA): active; positive | carcinogen call (Species: RAT, Strain/Sex: WISTAR/MALE, Route: SUBCUTANEOUS, Dose: 0, 10, 20, 30 UMOL/KG BW 1X/WK FOR 18 WK (STUDY DURATION: 18 WK), Dose: 0, 10, 20, 30 UMOL/KG BW 1X/WK FOR 18 WK (STUDY DURATION: 18 WK), Tumor Site: Type of Lesion: INJECTION SITE SARCOMA): active; positive | carcinogen call (Species: RAT, Strain/Sex: WISTAR/MALE, Route: SUBCUTANEOUS, Dose: 5.5 MG/KG ONCE, Tumor Site: Type of Lesion: INJECTION SITE: SARCOMA, TESTES: INTERSTITIAL CELL TUMOR): active; positive | carcinogen call (Species: RAT, Strain/Sex: WISTAR, Route: SUBCUTANEOUS, Dose: 0, 0.03 MMOL/KG BW (5.5 MG/KG BW), SINGLE DOSE, OBSERVED 2 YR, Tumor Site: Type of Lesion: INJECTION SITE: SPINDLE CELL SARCOMA, TESTES: INTERSTITIAL CELL TUMOR): active; positive | carcinogen call (Species: RAT, Strain/Sex: WISTAR, Route: SUBCUTANEOUS, Dose: 0, 0.03 MMOL/KG BW (5.5 MG/KG BW), SINGLE DOSE, Tumor Site: Type of Lesion: INJECTION SITE: SARCOMA, TESTES: INTERSTITIAL CELL TUMOR): active; positive | carcinogen call (Species: RAT, Strain/Sex: WISTAR, Route: SUBCUTANEOUS, Dose: 0.02-0.03 MMOL/KG BW (3.7-5.5 MG/KG BW), SINGLE DOSE, Tumor Site: Type of Lesion: INJECTION SITE: FIBROSARCOMA, TESTES: INTERSTITIAL CELL TUMOR): active; positive
